What was measured:
[1] = test system: HEK293 (Viral Production Cells 2.0) producing AAV8; assay: Production of AAV in HEK293 in suspension culture system (AAV8 genome titer by real-time PCR, viral particles by ELISA, full capsid ratio); type: cell-based, human
[2] = test system: HEK293 2.sus producing Human adenovirus 32; conditions: Example 6; CDM4HEK293 with or without β-alanine; MOI 0.1
Method: The entire volume is placed in a 50 ml tube, 29 mL of glutamine-containing 293 SFM II is added thereto and the cells are suspended. 5 mL of the cell suspension is placed in a Petri dish and culturing with shaking (50 rpm) is performed in a CO2 incubator (temperature setting: 37° C., CO2 concentration: 5%, model: MCO-170AICUV-PJ, Panasonic Healthcare Co., Ltd.) for 2-3 days. • (4) After culturing, the culture solution is recovered and transferred to a 15 mL centrifuge tube. • (5) Centrifugation is performed for 5 min (1000 rpm, 190×g, 24° C.) and the supernatant is removed. • (6) 1 ML of glutamine-containing 293 SFM II is added to the 15 mL centrifuge tube and the cells are resuspended. The cell number is measured using a hemocytometer and glutamine-containing 293 SFM II is added to 3×10^5 cells/mL. […] The cell number is measured using a hemocytometer and the culture solution is added to 3×10^5 cells/mL. […]

**Q.** Which “AAV8 genome titer (relative)” value ([1]; Example 4, spermidine trihydrochloride final concentration 30 μM or 100 μM, FIG. 6) does the source give for `Cl.Cl.Cl.NCCCCNCCCN` [spermidine trihydrochloride] here?
**A.** improvements

**Q.** What about the “full capsid ratio (relative)” value ([1]; Example 4, spermidine trihydrochloride final concentration 30 μM or 100 μM, FIG. 7) of the same compound?
**A.** improvements

**Q.** And the “AAV8 genome titer (relative)” value ([1]; Example 5, spermidine trihydrochloride 200 μM alone, FIG. 8)?
**A.** improved

**Q.** For `NCCC(=O)O` [β-alanine], which “AAV8 genome titer (relative)” value ([1]; Example 1, β-alanine final concentration 100 μM, vs medium without β-alanine = 100%, FIG. 1) is on record?
**A.** improvements

**Q.** What about the “full capsid ratio (relative)” value ([1]; Example 1, β-alanine final concentration 100 μM, vs medium without β-alanine = 100%, FIG. 2) of the same compound?
**A.** improvements

**Q.** What about the “AAV8 genome titer (relative)” value ([1]; Example 2, β-alanine final concentration 100 μM, FIG. 3) of the same compound?
**A.** improvement

**Q.** What about the “AAV8 genome titer (relative)” value ([1]; Example 2, β-alanine final concentration 300 μM, FIG. 3) of the same compound?
**A.** improvement

**Q.** What about the “virus count (capsid count (relative))” value ([1]; Example 3, β-alanine final concentration 300 μM, FIG. 4) of the same compound?
**A.** increase

**Q.** What about the “full capsid ratio (relative)” value ([1]; Example 3, β-alanine final concentration 300 μM, FIG. 5) of the same compound?
**A.** improvement

**Q.** What about the “AAV8 genome titer (relative)” value ([1]; Example 5, β-alanine 300 μM alone, FIG. 8) of the same compound?
**A.** improved

**Q.** What about the adenovirus titer [2] of the same compound?
**A.** Improvement
